# BindingDB's records for doi:10.7270/Q2W37TT2 (Johns Hopkins Ion Channel Center, 2011)
# Molecular target: Potassium voltage-gated channel subfamily KQT member 2 (Rattus norvegicus, UniProt O88943)
# Assay: blockers of KCNQ2 channel current – cell-based, automated electrophysiology, set II, rat KCNQ2, dose response (AID 588637)
# Potassium voltage-gated channel subfamily KQT member 2, sequence (O88943 whole entry): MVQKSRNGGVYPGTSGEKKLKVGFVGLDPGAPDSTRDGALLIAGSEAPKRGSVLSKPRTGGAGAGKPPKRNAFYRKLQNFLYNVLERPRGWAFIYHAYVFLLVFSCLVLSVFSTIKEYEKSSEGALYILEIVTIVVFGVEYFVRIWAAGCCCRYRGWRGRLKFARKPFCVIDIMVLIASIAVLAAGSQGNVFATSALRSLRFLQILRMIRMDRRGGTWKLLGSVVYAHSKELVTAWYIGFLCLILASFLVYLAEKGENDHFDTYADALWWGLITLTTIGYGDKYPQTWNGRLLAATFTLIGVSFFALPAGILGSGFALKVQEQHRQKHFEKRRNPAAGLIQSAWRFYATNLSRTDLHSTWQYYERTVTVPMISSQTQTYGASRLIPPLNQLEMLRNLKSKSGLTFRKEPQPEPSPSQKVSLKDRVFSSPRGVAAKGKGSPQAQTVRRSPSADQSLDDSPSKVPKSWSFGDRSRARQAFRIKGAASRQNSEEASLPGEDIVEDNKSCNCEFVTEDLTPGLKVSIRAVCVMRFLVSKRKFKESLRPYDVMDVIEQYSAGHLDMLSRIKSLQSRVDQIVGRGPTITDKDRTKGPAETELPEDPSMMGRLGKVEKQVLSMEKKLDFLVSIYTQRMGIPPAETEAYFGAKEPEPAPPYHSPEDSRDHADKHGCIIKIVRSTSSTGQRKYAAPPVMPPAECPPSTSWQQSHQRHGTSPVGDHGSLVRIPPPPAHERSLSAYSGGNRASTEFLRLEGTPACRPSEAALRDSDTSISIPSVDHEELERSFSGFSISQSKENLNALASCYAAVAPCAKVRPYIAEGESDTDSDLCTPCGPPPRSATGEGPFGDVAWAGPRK
row,Compound,IC50 [µM]
1,COc1ccc(-[n+]2c(-c3ccccc3)cc(-c3ccc(C)cc3)cc2-c2ccccc2)cc1,11.1
2,"CC(N=Nc1nc(N2CCCCCC2)nc(N2CCCCCC2)n1)c1ccccc1 (configuration not stated) [(1E)-1-phenylethanone (4,6-diazepan-1-yl-1,3,5-triazin-2-yl)hydrazone]",1.62
